For one experiment, the system named is transglutaminase (TGase). Briefly: Measurement of TG (TGase inhibitory activity, monodansyl cadaverine / N,N-dimethylcasein fluorescence, FDSS 3000). The class given is biochemical. In a few lines:
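Compound (1 μL of 10 mM stock) added to 0.1 mL reaction: 100 mM HEPES-NaOH pH 7.5, 1 mM CaCl2, 20 μM monodansyl cadaverine, 0.05 mg/mL N,N-dimethylcasein, 5 μg/mL TGase. Rate of fluorescence change at 340 nm measured; DMSO control set to 100; TG50 is the concentration halving activity.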

Experiment [1] concerns Truncated N-terminal huntington 150 Q-EGFP-Neuron 2a cells. As to the kind of experiment: Measurement of x-Fold (polyglutamine aggregation inhibitory activity). Type of experiment: cell-based. On the procedure: In the present invention, the polyglutamine aggregation inhibitory activity (x-Fold) can be measured, for example, by the method described in the Example.
The number of the aggregated cells, and the total number of cells were counted by Array Scan V T1 (manufactured by Cellomics, Pittuburg, USA), and the ratio of the aggregated cells to the total number of cells was determined (x-Fold). […]

Setting [2] is: TGase activity with compound (10 mM, 1 μL in 0.1 ml enzyme reaction solution), DMSO control taken as 100.
The mark [3] stands for this setting: TGase inhibitory activity value, Table 1.
Setting [4] is: polyglutamine aggregation inhibitory activity, Table 1.
[5] abbreviates: ratio of aggregated cells to total number of cells, compound 20 μM, 20 hr, almost 1 without compound, smaller = stronger inhibition.
The mark [6] stands for this setting: TGase inhibitory activity measurement, unit not given.
[7] abbreviates: polyglutamine aggregation, Truncated N-terminal huntington 150 Q-EGFP-Neuron 2a cells.

For the molecule `NCCOB(c1cccc(COCc2cccc(B(OCCN)c3cccc4ccccc34)c2)c1)c1cccc2ccccc12` [Example 376, bis(3-(1-naphthylaminoethoxyboryl)benzyl)ether], the “TGase activity remaining (% of DMSO control = 100)” value with transglutaminase (TGase) (setting [2]) and in the experiment on transglutaminase (TGase) (setting [3]) was 75 each time. The x-Fold in experiment [1] (setting [4]) and in experiment [1] (setting [5]) was 0.93 each time.
With `CC(C)(C)c1cc(B(OCCN)c2ccccc2)c2c(c1)C(C)(C)c1cc(C(C)(C)C)cc(B(OCCN)c3ccccc3)c1O2` [Example 378, 4,5-di(phenylaminoethoxyboryl)-2,7-di-tert-butyl-9,9-dimethylxanthrene], the “TGase activity remaining (% of DMSO control = 100)” value in the experiment with transglutaminase (TGase) (setting [2]) and with transglutaminase (TGase) (setting [3]) was 88 in each case. Further, the x-Fold in experiment [1] (setting [4]) and in experiment [1] (setting [5]) was 0.79 throughout.
As for `OB(c1ccccc1)c1ccc(COCCOc2ccc(B(O)c3ccccc3)cc2)cc1` [Example 379, (4-(phenylhydroxyboryl)phenoxyethyl)(4-(phenylhydroxyboryl)benzyl)ether], the “TGase activity remaining (% of DMSO control = 100)” value in the experiment with transglutaminase (TGase) (setting [2]) and in the experiment on transglutaminase (TGase) (setting [3]) was 92 in each case. Besides, the x-Fold in experiment [1] (setting [4]) and in experiment [1] (setting [5]) was 0.74 throughout.
With `NCCOB(c1ccccc1)c1ccc(COCCOc2ccc(B(OCCN)c3ccccc3)cc2)cc1` [Example 380, (4-(phenylaminoethoxyboryl)phenoxyethyl)(4-(phenylaminoethoxyboryl)benzyl)ether], the “TGase activity remaining (% of DMSO control = 100)” value in the experiment on transglutaminase (TGase) (setting [2]) and in the experiment on transglutaminase (TGase) (setting [3]) was 92 in each case. The x-Fold in experiment [1] (setting [4]) and in experiment [1] (setting [5]) was 0.67 throughout.
For the molecule `OB(c1ccccc1)c1cccc(-c2cccc(B(O)c3ccccc3)n2)n1` [Example 381, 6,6′-(phenylhydroxyboryl)-2,2′-dipyridyl], the “TGase activity remaining (% of DMSO control = 100)” value in the experiment on transglutaminase (TGase) (setting [2]) and in the experiment on transglutaminase (TGase) (setting [3]) was 55 in each case. Moreover, the x-Fold in experiment [1] (setting [4]) and in experiment [1] (setting [5]) was 0.80 throughout.
Regarding `NCCOB(c1ccccc1)c1cccc(-c2cccc(B(OCCN)c3ccccc3)n2)n1` [Example 382, 6,6′-(phenylaminoethoxyboryl)-2,2′-dipyridyl], the “TGase activity remaining (% of DMSO control = 100)” value with transglutaminase (TGase) (setting [2]) and in the experiment on transglutaminase (TGase) (setting [3]) was 76 in each case. The x-Fold in experiment [1] (setting [4]) and in experiment [1] (setting [5]) was 0.80 each time.
Take `OB(c1ccccc1)c1ccc(B(O)c2ccccc2)o1` [Example 383, bis(2,5-(phenylhydroxyboryl))furan]: the “TGase activity remaining (% of DMSO control = 100)” value with transglutaminase (TGase) (setting [2]) and in the experiment on transglutaminase (TGase) (setting [3]) was 103 each time. Besides, the x-Fold in experiment [1] (setting [4]) and in experiment [1] (setting [5]) was 0.92 throughout.
In the case of `NCCOB(c1ccccc1)c1ccc(B(OCCN)c2ccccc2)o1` [Example 384, bis(2,5-(phenylaminoethoxyboryl))furan], the “TGase activity remaining (% of DMSO control = 100)” value in the experiment on transglutaminase (TGase) (setting [2]) and in the experiment with transglutaminase (TGase) (setting [3]) was 60 each time. For the same molecule, the x-Fold in experiment [1] (setting [4]) and in experiment [1] (setting [5]) was 1.05 in each case.
Turning to `CN(C)CCOB(c1ccccc1)c1ccc(Oc2ccc(B(OCCN(C)C)c3ccccc3)cc2)cc1` [Example 385, bis(4,4′-(phenyl-N,N-dimethylaminoethoxyboryl)phenyl)ether], in the experiment with transglutaminase (TGase) (setting [2]), the “TGase activity remaining (% of DMSO control = 100)” value was found to be 116. Besides, the x-Fold amounted to 1.07 in experiment [1] (setting [4]) and 0.78 in experiment [1] (setting [5]).
For the molecule `OB(c1ccccc1)c1ccc2sc3ccc(B(O)c4ccccc4)cc3c2c1` [Example 387, 2,8-di(phenylhydroxyboryl)dibenzothiophene], the “TGase activity remaining (% of DMSO control = 100)” value in the experiment on transglutaminase (TGase) (setting [2]) and in the experiment with transglutaminase (TGase) (setting [3]) was 96 each time. The x-Fold in experiment [1] (setting [4]) and in experiment [1] (setting [5]) was 0.73 in each case.
On to `c1cc(B(OCC2CCCN2)c2ccc3sc4ccc(B(OCC5CCCN5)c5ccsc5)cc4c3c2)cs1` (centres unmarked) [Example 389, 2,8-di(3-thiophenyl-2-pyrrolidinomethoxyboryl)dibenzothiophene], for which the “TGase activity remaining (% of DMSO control = 100)” value in the experiment on transglutaminase (TGase) (setting [2]) and with transglutaminase (TGase) (setting [3]) was 81 each time. For the same molecule, the x-Fold in experiment [1] (setting [4]) and in experiment [1] (setting [5]) was 0.83 throughout.
Take `NC(=O)CC(N)C(=O)OB(c1ccccc1)c1ccc(Oc2ccc(B(OC(=O)C(N)CC(N)=O)c3ccccc3)cc2)cc1` (centres unmarked) [Example 390, bis(4,4′-(phenyl-asparagineboryl)phenyl)ether]: the “TGase activity remaining (% of DMSO control = 100)” value with transglutaminase (TGase) (setting [2]) is listed as 56. Besides, the x-Fold in experiment [1] (setting [5]) was determined as 0.59.
For the molecule `CN(C)CCOB(c1ccccc1)c1ccc(Oc2ccc(B(OCCN(C)C)c3ccc(CO)cc3)cc2)cc1` [Example 392, (4-(phenyl-N,N-dimethylaminoethoxyboryl)phenyl)(4′-(hydroxymethylphenyl-N,N-dimethylaminoethoxyboryl)phenyl)ether], the “TGase activity remaining (% of DMSO control = 100)” value with transglutaminase (TGase) (setting [2]) and in the experiment on transglutaminase (TGase) (setting [3]) was 83 each time. In addition, the x-Fold in experiment [1] (setting [4]) and in experiment [1] (setting [5]) was 0.91 each time.
Take `NC(CCC(=O)O)C(=O)OB(c1ccccc1)c1ccc(Oc2ccc(B(OC(=O)C(N)CCC(=O)O)c3ccc(CO)cc3)cc2)cc1` (centres unmarked) [Example 393, (4-(phenyl-glutamic acid boryl)phenyl)(4′-(hydroxymethylphenyl-glutamic acid boryl)phenyl)ether]: the “TGase activity remaining (% of DMSO control = 100)” value with transglutaminase (TGase) (setting [2]) amounted to 117. Further, the x-Fold in experiment [1] (setting [5]) was 0.56.
Turning to `CN(C)CCOB(c1ccccc1)c1ccc(Oc2ccc(B(OCCN(C)C)c3ccccc3)cc2)cc1` [Example 395, bis(4,4′-(phenyl-N,N-dimethylaminoethoxyboryl)phenyl)ether], in the experiment on transglutaminase (TGase) (setting [2]), the “TGase activity remaining (% of DMSO control = 100)” value amounted to 116. Moreover, in experiment [1] (setting [5]), the x-Fold worked out at 0.86.
For `NC(CS)C(=O)OB(c1ccccc1)c1ccc(Oc2ccc(B(OC(=O)C(N)CS)c3ccc(CO)cc3)cc2)cc1` (centres unmarked) [Example 397, (4-(phenyl-cysteineboryl)phenyl)(4′-(hydroxymethylphenyl-cysteineboryl)phenyl)ether], the “TGase activity remaining (% of DMSO control = 100)” value in the experiment with transglutaminase (TGase) (setting [2]) and with transglutaminase (TGase) (setting [6]) was 70 each time. Further, the x-Fold in experiment [1] (setting [7]) and in experiment [1] (setting [5]) was 0.59 throughout.
Regarding `NCCNCCOB(c1ccccc1)c1ccc(COCc2ccc(B(OCCNCCN)c3ccccc3)cc2)cc1` [Example 399, bis(4,4′-(phenyl-N-aminoethyl-aminoethoxyboryl)benzyl)ether], the “TGase activity remaining (% of DMSO control = 100)” value in the experiment on transglutaminase (TGase) (setting [2]) and in the experiment with transglutaminase (TGase) (setting [6]) was 53 throughout. Also, the x-Fold in experiment [1] (setting [7]) and in experiment [1] (setting [5]) was 0.96 in each case.
For the molecule `CNCCOB(c1ccccc1)c1ccc(COCc2ccc(B(OCCNC)c3ccccc3)cc2)cc1` [Example 400, bis(4,4′-(phenyl-N-methylaminoethoxyboryl)benzyl)ether], the “TGase activity remaining (% of DMSO control = 100)” value in the experiment on transglutaminase (TGase) (setting [2]) and in the experiment with transglutaminase (TGase) (setting [6]) was 52 in each case. Besides, the x-Fold in experiment [1] (setting [7]) and in experiment [1] (setting [5]) was 1.01 throughout.
